Assay results taken from patent publication US10351915B2 (Berg LLC, priority 2009, dated 2019).

Tested on: Isocitrate Dehydrogenase-1 (IDH-1)
Test: Western blot, IDH1 levels
Format: cell-based, human
Method: The whole cell pellets were resuspended one at a time in 1 mL of C7 buffer and transferred to labeled 15 mL tubes. The samples were then sonicated in the cold room on ice using 6 sonic pulses with the setting at #14. The samples were spun for a short time to 2500 g after sonication and the samples transferred to 2 ml tubes. The pH was verified of each sample (pH should be 9.0) using the foam remaining in the […] sample tubes.
Alkylation and reduction of samples was performed for each sample by adding 10 ul of 1M acrylamide, 25 ul of tributylphoshene and incubation for 90 mins with intermittent mixing. After incubation, 10 ul of 1M DTT was added and the tubes were spun at 20,000 g at 20 deg C. for 10 minutes and transferred the supernatant to labeled Amicon Ultra centrifugal filter units with a 10 k cut off (Millipore catalog # UFC 801024). The samples were spun for 15 minutes at 2500 g in 2 intervals. The conductivity was measured for Chaps alone as well as the samples using a conductivity meter. If the conductivity of samples is high, then 1 ml of chaps was added for buffer exchange and spun again at 2500 g until the volume was down to 250 ul. When the conductivity was 200 or less the samples were spun in 5 min intervals at 2500 g until the volume of the supernatant was between 150-100 ul. The sample supernatants were transferred to eppendorf tubes and Bradford assay was performed using BSA as standard.
The samples were processed as per standard protocols as described above and the amount of protein in each of the samples was determined by Bradford assay. Sample volumes equivalent to 10 ug of protein were prepared as shown below with Lamelli Loading dye (LDS) and MilliQ water were run on a 4-12% Bis-Tris Novex NuPAGE gel (Invitrogen, cat # NP0323Box)
The gels were run for 50 minutes using 1×MOPS buffer using a NOVEX Xcell Surelock system at 200 V. The gels were then transferred for 1 hour using a NOVEX Xcell Surelock wet transfer protocol at 30 V. The blots were stained with Simply Blue Safestain from Invitrogen (LC6065).
After transfer each of the blots was placed in between 2 Whatman Filter papers and dried for 15-20 minutes. After drying the blots were labeled with the date, the type of samples and either blot 1 or blot 2 using a HB pencil. The molecular weight markers were outlined with the pencil and with single lines for the blue and a doublet for the colored markers. The blots were activated with methanol for 5 seconds, washed with water for 5 minutes, and TBST for 15 minutes. The blots were blocked for 1 hour with 5% blocking reagent in TBS-T at room temperature and then washed 3 times with TBS-T (1×-15′; 2×5′ each). […]

With `COC1=C(OC)C(=O)C(C/C=C(\C)CC/C=C(\C)CC/C=C(\C)CC/C=C(\C)CC/C=C(\C)CC/C=C(\C)CC/C=C(\C)CC/C=C(\C)CC/C=C(\C)CCC=C(C)C)=C(C)C1=O` [Q10, Coenzyme Q10] the “IDH1, Average Normalized Intensity” value (HDFa cells, HDF24-100 (HDF, Media = 346)) was 600, the “expression pattern of IDH1” value (HDFa, nFIB and HASMC) was “did not demonstrate significant changes” and the “expression of IDH1” value (SCC25 cell lines) was “moderate increase in expression”. For the same compound, the “expression of IDH1” value (cancer cell lines MCF-7, SKMEL28, HepG2 and PaCa-2) was “increased expression”.
